# Reference: patent publication US20080261977A1, “Pyrimidine Derivatives as Cannabinoid Receptor Modulators” (priority 2004, published 2008)
# Where a name gives a salt, the structure may show the parent alone. Read-outs that look alike come from different tables or passages of the source.
# Target: T1, human cannabinoid CB2 receptor (Homo sapiens, UniProt P34972)
# T1 construct: expressed in transfected cells; host or cells: Saccharomyces cerevisiae strain MMY23 (cassette integrated at the ura3 locus; chimeric Gpa1/Gαi3)
# T1 sequence (P34972 whole entry): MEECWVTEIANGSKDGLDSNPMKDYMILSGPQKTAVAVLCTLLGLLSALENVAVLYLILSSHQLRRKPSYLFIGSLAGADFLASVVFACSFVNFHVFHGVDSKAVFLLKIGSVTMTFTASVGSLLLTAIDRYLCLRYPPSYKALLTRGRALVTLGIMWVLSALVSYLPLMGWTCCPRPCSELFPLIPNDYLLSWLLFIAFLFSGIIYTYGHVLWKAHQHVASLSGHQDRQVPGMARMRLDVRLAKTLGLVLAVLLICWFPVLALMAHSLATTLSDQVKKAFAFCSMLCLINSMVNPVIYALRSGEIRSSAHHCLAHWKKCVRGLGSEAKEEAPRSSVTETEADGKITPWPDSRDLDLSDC
# Assay: Cannabinoid CB2 receptor agonist activity, yeast (Saccharomyces cerevisiae) cells expressing the receptor, FDGlu fluorescence
# Type: cell-based
# Details: for Emax: read-out: efficacy (Emax relative to HU210) at the cloned human cannabinoid CB2 receptor
# Procedure: The cannabinoid CB2 receptor agonist activity of the compounds of formula (I) was determined in accordance with the following experimental method.
# Yeast (Saccharomyces cerevisiae) cells expressing the human cannabinoid CB2 receptor were generated by integration of an expression cassette into the ura3 chromosomal locus of yeast strain MMY23. This cassette consisted of DNA sequence encoding the human CB2 receptor flanked by the yeast GPD promoter to the 5′ end of CB2 and a yeast transcriptional terminator sequence to the 3′ end of CB2. MMY23 expresses a yeast/mammalian chimeric G-protein alpha subunit in which the C-terminal 5 amino acids of Gpa1 are replaced with the C-terminal 5 amino acids of human Gαi3 (as described in Brown et al. (2000), Yeast 16:11-22). Cells were grown at 30° C. in liquid Synthetic Complete (SC) yeast media (Guthrie and Fink (1991), Methods in Enzymology, Vol. 194) lacking uracil, tryptophan, adenine and leucine to late logarithmic phase (approximately 6 OD600/ml).
# Agonists were prepared as 10 mM stocks in DMSO. EC50 values (the concentration required to produce 50% maximal response) were estimated using dilutions of between 3- and 5-fold (BiomekFX, Beckman) into DMSO. Agonist solutions in DMSO (1% final assay volume) were transferred into black, clear bottom, microtitre plates from NUNC (96- or 384-well). Cells were suspended at a density of 0.2 OD600/ml in SC media lacking histidine, uracil, tryptophan, adenine and leucine and supplemented with 10 mM 3-aminotriazole, 0.1M sodium phosphate pH 7.0, and […] fluorescein di-β-D-glucopyranoside (FDGlu). This mixture (50 ul per well for 384-well plates, 200 ul per well for 96-well plates) was added to agonist in the assay plates (Multidrop 384, Labsystems). After incubation at 30° C. for 24 hours, fluorescence resulting from degradation of FDGlu to fluorescein due to exoglucanase, an endogenous yeast enzyme produced during agonist-stimulated cell growth, was determined using a Spectrofluor microtitre plate reader (Tecan; excitation wavelength: 485 nm; emission wavelength: 535 nm). Fluorescence was plotted against compound concentration and iteratively curve fitted using a four parameter fit to generate a concentration effect value. Efficacy (Emax) was calculated from the equation
# Emax=Max[compound X]−Min[compound X]/Max[HU210]−Min[HU210]×100%
# where Max[compound X] and Min[compound X] are the fitted maximum and minimum respectively from the concentration effect curve for compound X, and Max[HU210] and Min[HU210] are the fitted maximum and minimum respectively from the concentration effect curve for (6aR,10aR)-3-1,1′-Dimethylheptyl)-6a,7,10,10a-tetrahydro-1-hydroxy-6,6-dimethyl-6H-dibenzo[b,d]pyran-9-methanol (HU210; available from Tocris). Equieffective molar ratio (EMR) values were calculated from the equation
# Where EC50[compound X] is the EC50 of compound X and EC50[HU210] is the EC50 of HU210.
# [1] = yeast agonist assay, read-out: EC50 at the cloned human cannabinoid CB2 receptor
Structure (SMILES),Emax [%],EC50 [1] [nM],Emax (yeast agonist assay) [%],EC50 [nM]
"CC(O)CNCc1cnc(Nc2cccc(Cl)c2)nc1C(F)(F)F (stereo not drawn) [Example 52, 1-{[2-(3-Chlorophenylamino)-4-trifluoromethyl-pyrimidin-5-ylmethyl]-amino}-propan-2-ol]",> 50,300 to 1000,–,–
"CCCCNCc1cnc(Nc2cccc(Cl)c2)nc1C(F)(F)F [Example 22, (3-Chlorophenyl)-(5-butylaminomethyl-4-trifluoromethyl-pyrimidin-2-yl)-amine,formate]",–,< 300,> 50,–
"Fc1cccc(Nc2ncc(CNCC3CCC3)c(C(F)(F)F)n2)c1 [Example 37, (3-Fluorophenyl)-{5-[(cyclobutylmethylamino)-methyl]-4-trifluoromethyl-pyrimidin-2-yl}-amine,formate]",–,< 300,> 50,–
"FC(F)(F)c1nc(Nc2cccc(Cl)c2)ncc1CNCCCc1ccccc1 [Example 46, (3-Chlorophenyl)-[5-(phenpropylamino-methyl)-4-trifluoromethyl-pyrimidin-2-yl]-amine, formate]",> 50,300 to 1000,–,–
"CC(C)c1nc(Nc2cccc(Cl)c2)ncc1CNC1CCC1 [Example 98, (3-Chloro-phenyl)-{5-[(cyclobutylamino)-methyl]-4-isopropyl-pyrimidin-2-yl}-amine hydrochloride]",–,< 300,> 50,–
"FC(F)(F)c1nc(Nc2cccc(Cl)c2)ncc1CNCc1cccnc1 [Example 31, (3-Chlorophenyl)-(5-{[(pyridin-3-ylmethyl)-amino]-methyl}-4-trifluoromethyl-pyrimidin-2-yl}-amine,formate]",–,< 300,> 50,–
"CC(C)(C)CNCc1cnc(Nc2ccc(Cl)cc2Cl)nc1C(F)(F)F [Example 32, (2,4-Dichlorophenyl)-{5-[(2,2-dimethylpropylamino)-methyl]-4-trifluoromethyl-pyrimidin-2-yl}-amine]",> 50,–,–,< 300
"FC(F)(F)c1nc(Nc2ccc(Cl)cc2Cl)ncc1CN1CCCC1 [Example 53, (2,4-Dichlorophenyl)-(5-pyrrolidin-1-ylmethyl-4-trifluoromethyl-pyrimidin-2-yl)-amine]",> 50,300 to 1000,–,–
"FC(F)(F)c1nc(Nc2cccc(Cl)c2)ncc1CNC1CCOCC1 [Example 16, (3-Chlorophenyl)-{5-[(tetrahydro-pyran-4-ylamino)-methyl]-4-trifluoromethyl-pyrimidin-2-yl}-amine, formate]",–,< 300,> 50,–
"FC(F)(F)c1nc(Nc2cccc(Cl)c2)ncc1CNC1CC1 [Example 23, (3-Chlorophenyl)-(5-cyclopropylaminomethyl-4-trifluoromethyl-pyrimidin-2-yl)-amine,formate]",–,< 300,> 50,–
"FC(F)(F)c1nc(Nc2cccc(Cl)c2)ncc1CNCC1CC1 [Example 25, (3-Chlorophenyl)-{5-[(cyclopropylmethylamino)-methyl]-4-trifluoromethyl-pyrimidin-2-yl}-amine,formate]",–,< 300,> 50,–
"Fc1cccc(Nc2ncc(CN3CCOCC3)c(C(F)(F)F)n2)c1 [Example 56, (3-Fluorophenyl)-(5-morpholin-4-ylmethyl-4-trifluoromethyl-pyrimidin-2-yl)-amine]",> 50,300 to 1000,–,–
"FC(F)(F)c1nc(Nc2cccc(Cl)c2)ncc1CN1CCOCC1 [Example 14, (3-Chlorophenyl)-(5-morpholin-4-ylmethyl-4-trifluoromethyl-pyrimidin-2-yl)-amine]",> 50,–,–,< 300
"FC(F)(F)c1nc(Nc2ccc(Cl)cc2Cl)ncc1CNC1CC1 [Example 30, (2,4-Dichlorophenyl)-(5-cyclopropylaminomethyl-4-trifluoromethyl-pyrimidin-2-yl)-amine]",> 50,–,–,< 300
"Fc1cccc(Nc2ncc(CNCC3CC3)c(C(F)(F)F)n2)c1 [Example 54, (3-Fluorophenyl)-{5-[(cyclopropylmethylamino)-methyl]-4-trifluoromethyl-pyrimidin-2-yl}-amine,formate]",> 50,300 to 1000,–,–
